Reference: publication PMC5519068 (PLoS ONE, 2017)
Read-outs that look alike come from different tables or passages of the source.

Key:
Flt3-WT kinase domain = biological target: T1, Flt3-WT kinase domain (Homo sapiens, UniProt P36888); experiment: In vitro kinase assay (Z'-LYTE); type: biochemical; conditions: ATP at Km
T1 construct: Recombinant Flt3-WT, Flt3-ITD, and Flt3-D835Y kinase domain proteins were purchased from Life Technologies; purchased Life Technologies
Method: Recombinant protein kinase assays were performed using the FRET-based Z’-LYTE Kinase Assay according to the manufacturer’s instructions (Thermo Fisher Scientific). […] The Tyr-2 peptide was used as substrate for all recombinant kinases. Kinases were preincubated with inhibitors for 30 minutes, followed by addition of ATP and peptide substrate for 1 hour. Reactions were quenched by addition of development reagent, followed by incubation for an additional hour prior to fluorescence measurements on a SpectraMax M5 microplate reader. IC50 values were calculated by non-linear regression analysis of the resulting concentration-response curves using GraphPad PRISM.

[1] = tested on: TF-1 cells transduced with an empty retroviral vector (Control); experiment: Inhibitor sensitivity of TF-1 cell populations, CellTiter-Blue, 72 h; type: cell-based, human; conditions: Homo sapiens, TF-1; empty vector control, 72 h
Method: (§1) Cells were seeded at a density of 100,000 cells per 1.0 ml in 48-well culture plates. Compounds were added to various concentrations while holding the DMSO concentration constant at 0.1%. Cell viability was assessed 72 hours later using the CellTiter-Blue Cell Viability assay (Promega) according to the manufacturer’s protocol and a SpectraMax Multi-Mode Microplate Reader (Molecular Devices). IC50 values were determined by non-linear regression analysis of concentration-response curves using the GraphPad PRISM software package (version 6.0). Apoptosis was determined using the same cell culture conditions and the Apo-ONE Homogeneous Caspase-3/7 Assay (Promega) and the manufacturer’s protocol.
(§2) For each retroviral transduction, TF-1 cells (1 x 10^6) were suspended in 5 mL of undiluted viral supernatant and plated in one well of a 6-well tissue culture dish. Polybrene (Sigma) was added to a final concentration of 4 μg/mL and the TF-1 cells were centrifuged at 1000 x g for 3 hours to enhance retroviral mediated gene transfer. After centrifugation, the virus was removed and replaced with fresh medium.
(§3) Raw fluorescence data were corrected for background and then normalized to cultures grown in the presence of the DMSO carrier solvent. Each condition was performed in triplicate, and results are presented as the mean of the normalized values ± the SD. The resulting dose-response curves were fitted by non-linear regression analysis for estimation of the IC50 values (see Table 2). […] Fes and Flt3 kinase proteins were then immunoprecipitated from cell lysates followed by immunoblotting with antibodies to phosphotyrosine (pTyr), the Fes activation loop phosphotyrosine (pY713), as well as the Flt3 and Fes proteins.

TF-1/Flt3-D835Y cells = experiment: as above; type: cell-based, human
Method: as §1, §2, §3

TF-1/Flt3-ITD cells = experiment: as above; type: cell-based, human
Method: as §1, §2, §3

[2] = tested on: Flt3-ITD+ AML cell lines (MV4-11, MOLM-13, MOLM-14); experiment: Growth inhibition across Flt3-ITD+ AML cell lines; type: cell-based; conditions: Homo sapiens, 72 h
Method: as §1
Raw fluorescence data were corrected for background and then normalized to cultures grown in the presence of the DMSO carrier solvent. Each assay condition was performed in triplicate, and results are presented as the mean of the normalized values ± the SD.

[3] = tested on: Flt3-ITD in MV4-11 and MOLM-14 cells; experiment: Immunoprecipitation/immunoblot of Flt3 phosphotyrosine content in AML cells; type: cell-based, human; conditions: compound at in vitro IC90 for Fes, 16 h (tandutinib: IC90 for Flt3-ITD, 6 h)
Method: (§4) AML cells (2.5 x 10^6 in 5 mL) were cultured in the presence of kinase inhibitors or DMSO alone for 6 to 16 hours prior to lysis by sonication in RIPA buffer (50 mM Tris-HCl, pH 7.4, 150 mM NaCl, 1 mM EDTA, 1% Triton X-100, 0.1% SDS, 1% sodium deoxycholate) supplemented with 1 mM sodium orthovanadate, 1 mM sodium fluoride, 5 units/ml Benzonase (Novagen), and SigmaFAST EDTA-free protease inhibitor cocktail (Sigma). Flt3 and Fes were immunoprecipitated from 1 mg of cell lysate with 2 μg of antibody and 25 μL of protein G-Sepharose beads (Life Technologies) overnight at 4°C. Immunoprecipitates were washed three times by resuspension in 1.0 ml of RIPA buffer. Immunoprecipitated proteins were separated by SDS-PAGE, transferred to PVDF membranes and probed with the indicated antibodies followed by alkaline phosphatase-linked secondary antibodies. CDP-Star Western Blot Chemiluminescence Reagent (Perkin-Elmer) was used for detection.
(§5) Fes and Flt3 kinase proteins were then immunoprecipitated from cell lysates, followed by immunoblotting with antibodies to phosphotyrosine (pTyr), the Fes activation loop phosphotyrosine (pY713), as well as the Flt3 and Fes proteins.

[4] = tested on: T2, Fes in MV4-11 and MOLM-14 cells; experiment: Immunoprecipitation/immunoblot of Fes activation loop phosphorylation (pY713) in AML cells; type: cell-based, human; conditions: compound at in vitro IC90 for Fes, 16 h (tandutinib: IC90 for Flt3-ITD, 6 h)
T2 construct: endogenous in cells; host or cells: MV4-11 and MOLM-14
Method: as §4, §5

[5] = tested on: Flt3-D835Y in TF-1/Flt3-D835Y cells; experiment: Immunoprecipitation/immunoblot of Flt3-D835Y phosphotyrosine content in TF-1/Flt3-D835Y cells; type: cell-based, human; conditions: immunoblot, compound at in vitro IC90
Method: as §4, §3

[6] = tested on: bone marrow mononuclear cells from normal donors; experiment: Apoptosis by flow cytometry for cell-surface phosphatidylserine in normal cells (non-specific cytotoxicity); type: cell-based, human; conditions: 3 μM; three normal donors
Method: Cells were then analyzed on a BD Accuri C6 Flow cytometer and the resulting data were evaluated using the BD CSampler software.
The presence of apoptotic cells was then assayed 48 and 72 h later by flow cytometry for cell-surface phosphatidylserine. […] To assess non-specific cytotoxicity, bone marrow mononuclear cells from three normal donors were cultured and treated with inhibitors under identical conditions, followed by flow cytometry for apoptotic cells.

Flt3 = biological target: Flt3; set-up: method as in PMID 22520759; conditions: cited from earlier work

T1 sequence (P36888 610-943 limits assumed): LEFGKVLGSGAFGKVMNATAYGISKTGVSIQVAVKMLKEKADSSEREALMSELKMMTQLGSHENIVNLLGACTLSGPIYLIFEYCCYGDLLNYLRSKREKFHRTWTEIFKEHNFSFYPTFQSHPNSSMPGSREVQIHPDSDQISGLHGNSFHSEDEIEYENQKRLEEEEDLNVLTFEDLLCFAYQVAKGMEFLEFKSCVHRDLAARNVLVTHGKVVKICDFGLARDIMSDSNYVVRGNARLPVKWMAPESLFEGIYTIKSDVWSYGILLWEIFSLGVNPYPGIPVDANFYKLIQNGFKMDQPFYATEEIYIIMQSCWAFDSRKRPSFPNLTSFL

Structure (SMILES)	IC50 (Flt3-WT kinase domain) [nM]	IC50 [1] [nM]	Activity on TF-1/Flt3-D835Y cell growth (TF-1/Flt3-D835Y cells; 72 h)	IC50 (TF-1/Flt3-D835Y cells; Homo sapiens, TF-1, 72 h; read-out: Inhibitor sensitivity of TF-1 Cell Populations (IC50, nM) Flt3-D835Y) [nM]	IC50 (TF-1/Flt3-ITD cells; Homo sapiens, TF-1, 72 h; read-out: Inhibitor sensitivity of TF-1 Cell Populations (IC50, nM) Flt3-ITD) [nM]	IC50 ([2]; MV4-11, MOLM-13, MOLM-14, read-out: IC50 values for growth inhibition, range over the Flt3-ITD+ AML cell lines) [µM]	Inhibition of Flt3-ITD phosphotyrosine content in MV4-11 and MOLM-14 cells [3]	Inhibition of Fes activation loop phosphorylation in MV4-11 and MOLM-14 cells [4]	Inhibition of Flt3-D835Y phosphotyrosine content in TF-1/Flt3-D835Y cells [5]	Increase in apoptosis in normal bone marrow mononuclear cells [6] [%]	KINOMEscan binding to Flt3 (Flt3)	IC50 (TF-1/Flt3-D835Y cells; Homo sapiens, TF-1, 72 h, read-out: Inhibitor sensitivity of TF-1 Cell Populations (IC50, nM) Flt3-D835Y) [nM]	IC50 (TF-1/Flt3-ITD cells; Homo sapiens, TF-1, 72 h, read-out: Inhibitor sensitivity of TF-1 Cell Populations (IC50, nM) Flt3-ITD) [nM]	Potency in TF-1/Flt3-ITD cells compared to the Flt3-ITD+ AML cells (TF-1/Flt3-ITD cells; growth inhibition)	IC50 ([2]; read-out: IC50 values for growth inhibition in all three Flt3-ITD+ AML cell lines) [µM]
CCN1CCN(Cc2ccc(NC(=O)c3ccc(C)c(Oc4ccnc5[nH]ccc45)c3)cc2C(F)(F)F)CC1 [HG7-92-01]	536	> 1000	devoid of activity	> 1000	29	0.019 to 0.166	inhibited Flt3-ITD and Fes in both cell lines	inhibited Flt3-ITD and Fes in both cell lines	without effect	≤ 10	bind to a wider range of kinases (including Flt3)				
COc1cc(N2CCC(O)CC2)ccc1Nc1nc(Nc2ccccc2S(=O)(=O)C(C)C)c2cn[nH]c2n1 [WZ4-49-1]	3140	> 3000					only inhibited Fes	only inhibited Fes	complete inhibition			597	466	about two-fold higher	~1
